The results in this text go back to patent US6630615B1, “Defense-related signaling genes and methods of use” (Pioneer Hi-Bred International, Inc., priority 1999, dated 2003).

Entries after “also recorded” stand apart in the source; their conditions may differ.

The subject of this test is sunflower NCE gene expression. Put plainly: Northern blot analysis of NCE gene transcript levels under different chemical treatments. The following applies: six-week-old SMF3 sunflower plants sprayed with 5 mM oxalic acid, 5 mM H2O2, 5 mM salicylic acid or 45 μM jasmonic acid (0.1% ethanol); leaf samples at 0, 6, 12, 24 hours. In kind it is in vivo. As to the method:
FIG. 4 depicts the results of a Northern blot analysis of NCE gene transcript levels under different chemical treatments. Six-week-old sunflower plants were sprayed with oxalic acid (OA) (5 mM), H2O2 (5 mM), salicylic acid (SA) (5 mM), and jasmonic acid (JA) (45 μM in 0.1% ethanol). The leaf samples were collected at 0, 6, 12, and 24 hours after the applications and immediately frozen in liquid nitrogen. Twenty μg of total RNA was loaded in each sample lane. (CK, control)
For fungal infection and chemical treatments, SMF3 sunflower plants were planted in four-inch pots and grown in greenhouse for the first four weeks. After transfer to the growth chamber, the plants were maintained under 12-hour photoperiod at 22° C. with an 80% relative humidity. Six-week old plants were inoculated with Sclerotinid-infected carrot plugs or sprayed with an aqueous solution of either 5 mM oxalic acid, 5 mM H2O2, 5 mM salicylic acid or 45 μM jasmonic acid (with 0.1% ethanol). For each plant, three petioles were inoculated and wrapped with a 1 inch×2 inch piece of parafilm. Plant tissue samples were harvested at different time points and immediately frozen in liquid nitrogen and then stored at −80° C.
Plant materials were ground in liquid nitrogen, and total RNA was extracted by the Tri-Reagent method. RNA profiling was conducted using CuraGen Corporation's proprietary method sold under the trademark GENECALLING. See U.S. Pat. No. 5,871,697, herein incorporated by reference. Profiles of RNA samples prepared from combined leaf and stem tissues of six-week-old oxox sunflower plants were compared to profiles of similar RNA samples from of six-week-old SMF3 plants.
Total RNA (20 μg) was separated in a 1% agarose gel containing formaldehyde. Ethidium bromide was included to verify equal loading of RNA. After transfer onto Hybond N+membrane, the blots were hybridized with ^32P-labeled NCE, AAP, or GRP cDNA probes. As a control, a duplicate blot was hybridized with a probe complementary to 18S rRNA. Hybridization and washing conditions were performed according to Church et al. ((1984) Proc. Natl. Acad. Sci. USA 81:1991-1995).
With `OO` [H2O2], the “NCE gene expression (transcript level, Northern blot)” value is given as “negatively regulated; also recorded: down-regulated”.
In the case of `CC/C=C\C[C@H]1C(=O)CC[C@@H]1CC(=O)O` [jasmonic acid], the “NCE gene expression (transcript level, Northern blot)” value is “negatively regulated; also recorded: down-regulated”.
With `O=C(O)C(=O)O` [oxalic acid] the entry was “negatively regulated”; with `O=C(O)c1ccccc1O` [salicylic acid], “negatively regulated; also recorded: down-regulated”.
